From patent publication US4009181A, “Cyclopenta[b]indole-2-carboxylic acids and derivatives thereof” (Hoffmann-La Roche Inc., priority 1974, dated 1977)

How the values were obtained:
[1] = LD50 p.o. in mice (acute toxicity); assay type: in vivo
[2] = antipyretic activity: Brewer's yeast foot injection, foot and rectal temperatures; assay type: in vivo, male rats; settings: rats; 200 mg/kg.
Method: Control animals are given 1 cc/100 g. body weight of the vehicle. The test drug animals are given 200 mg/kg. of the drug in a concentration of 2 percent. Soluble and insoluble compounds are administered orally in aqueous suspended vehicle. One hour after administration of drug, these rats are injected with 0.1 ml. of a 2 percent suspension of Brewer's yeast beneath the plantar surface of the foot. Two hours after drug injections and 1 hour after the irritant, the temperatures of the inflammed foot, the normal foot and the rectum are recorded with the help of a thermocouple. Results are reported as degrees change from controls. The temperatures are averaged for the inflamed foot, the normal foot and the rectum. The averages for the treated groups are compared with the control averages and the results noted as degrees change from control.

[3] = analgesic activity: hot plate reaction time; assay type: in vivo, male mice; settings: mice; dose ranging from 38 mg. to about 220 mg.
Method: The method determines the reaction time of mice dropped onto a hot plate maintained at 55±0.5° C. Six groups of male mice (5 mice/group) weighing between 20-30 grams are utilized. The initial reaction time of these mice is determined once, and the reaction time of each group is then averaged. The mice are then administered the vehicle and/or the compound to be tested by the oral, intraperitoneal or subcutaneous route. The average reaction time of each group is determined again at 30, 60 and 90 minutes after compound administration and is compared to controls. Reaction time is recorded as percent changes from control. All groups are averaged before and after treatment. A combined reaction time average (recorded as percent change of reaction time threshhold from controls) for all three periods is plotted against dose on graph paper, and a curve is drawn. The ED 50 is read from this curve.

Q: What does the source list for `O=C(O)C1CCc2c([nH]c3ccc(Cl)cc23)C1` (stereo not drawn) [6-chloro-1,2,3,4-tetrahydrocarbazole-2-carboxylic acid]?
A: LD50 [1]: 1120 mg; antipyretic activity [2]: antipyretic activity is observed; analgesic activity [3]: analgesic activity is observed
